Experiments:
Assay in all cases: Histone peptide microarray
Format in all cases: binding, human
[1] = test system: AIRE (PP); conditions: GST-tagged AIRE (PP); sheet Array Heatmap; each array performed twice, total n = 4
Method in brief: (§1)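 Steps: express and purify GST-tagged PHD reader; incubate 0.5 μM protein on a peptide microarray (293 histone peptides, single or combined PTMs) following an optimized protocol; average signal across 4 replicates.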

[2] = test system: BAZ2B; conditions: GST-tagged BAZ2B; sheet Array Heatmap; each array performed twice, total n = 4
Method in brief: as §1

[3] = test system: BPTF (PB); conditions: GST-tagged BPTF (PB = PHD + Bromodomain); sheet Array Heatmap; each array performed twice, total n = 4
Method in brief: as §1

[4] = test system: CHD4 (PPCC); conditions: GST-tagged CHD4 (PPCC = Dual PHD + Dual Chromodomain); sheet Array Heatmap; each array performed twice, total n = 4
Method in brief: as §1

[5] = test system: CHD5 (PCC); conditions: GST-tagged CHD5 (PCC = PHD + Dual Chromodomain); sheet Array Heatmap; each array performed twice, total n = 4
Method in brief: as §1

[6] = test system: CHD5 (PPCC); conditions: GST-tagged CHD5 (PPCC = Dual PHD + Dual Chromodomain); sheet Array Heatmap; each array performed twice, total n = 4
Method in brief: as §1

[7] = test system: DIDO1; conditions: GST-tagged DIDO1; sheet Array Heatmap; each array performed twice, total n = 4
Method in brief: as §1

[8] = test system: DPF2 (PPC2W2); conditions: GST-tagged DPF2 (PPC2W2 = Dual PHD + C2W2-type Zn-finger); sheet Array Heatmap; each array performed twice, total n = 4
Method in brief: as §1

[9] = test system: ING1; conditions: GST-tagged ING1; sheet Array Heatmap; each array performed twice, total n = 4
Method in brief: as §1

[10] = test system: ING2; conditions: GST-tagged ING2; sheet Array Heatmap; each array performed twice, total n = 4
Method in brief: as §1

[11] = test system: ING3; conditions: GST-tagged ING3; sheet Array Heatmap; each array performed twice, total n = 4
Method in brief: as §1

[12] = test system: ING4; conditions: GST-tagged ING4; sheet Array Heatmap; each array performed twice, total n = 4
Method in brief: as §1

[13] = test system: ING5; conditions: GST-tagged ING5; sheet Array Heatmap; each array performed twice, total n = 4
Method in brief: as §1

[14] = test system: KDM4C (TTP); conditions: GST-tagged KDM4C (TTP = Tandem Tudor domain + PHD); sheet Array Heatmap; each array performed twice, total n = 4
Method in brief: as §1

[15] = test system: KDM5A (1); conditions: GST-tagged KDM5A (1); sheet Array Heatmap; each array performed twice, total n = 4
Method in brief: as §1

[16] = test system: KDM5A (3); conditions: GST-tagged KDM5A (3); sheet Array Heatmap; each array performed twice, total n = 4
Method in brief: as §1

[17] = test system: KDM5B (1); conditions: GST-tagged KDM5B (1); sheet Array Heatmap; each array performed twice, total n = 4
Method in brief: as §1

[18] = test system: KDM5B (3); conditions: GST-tagged KDM5B (3); sheet Array Heatmap; each array performed twice, total n = 4
Method in brief: as §1

[19] = test system: KDM7A; conditions: GST-tagged KDM7A; sheet Array Heatmap; each array performed twice, total n = 4
Method in brief: as §1

[20] = test system: MLL5; conditions: GST-tagged MLL5; sheet Array Heatmap; each array performed twice, total n = 4
Method in brief: as §1

[21] = test system: MORC3 (CW); conditions: GST-tagged MORC3 (CW = CW-type Zn-finger); sheet Array Heatmap; each array performed twice, total n = 4
Method in brief: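 GST-tagged PHD readers, 0.5 μM, probed on a microarray of 293 synthetic histone peptides carrying single or combinatorial PTMs (optimized Petell protocol). Signals are averaged over 4 replicates and expressed as relative binding.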

[22] = test system: PHF13; conditions: GST-tagged PHF13; sheet Array Heatmap; each array performed twice, total n = 4
Method in brief: as §1

[23] = test system: PHF21A; conditions: GST-tagged PHF21A; sheet Array Heatmap; each array performed twice, total n = 4
Method in brief: as §1

[24] = test system: PHF23; conditions: GST-tagged PHF23; sheet Array Heatmap; each array performed twice, total n = 4
Method in brief: as §1

[25] = test system: PHF2; conditions: GST-tagged PHF2; sheet Array Heatmap; each array performed twice, total n = 4
Method in brief: as §1

[26] = test system: PHF8; conditions: GST-tagged PHF8; sheet Array Heatmap; each array performed twice, total n = 4
Method in brief: as §1

[27] = test system: PHRF1 (RP); conditions: GST-tagged PHRF1 (RP); sheet Array Heatmap; each array performed twice, total n = 4
Method in brief: as §1

[28] = test system: RAG2; conditions: GST-tagged RAG2; sheet Array Heatmap; each array performed twice, total n = 4
Method in brief: as §1

[29] = test system: SP140L; conditions: GST-tagged SP140L; sheet Array Heatmap; each array performed twice, total n = 4
Method in brief: as §1

[30] = test system: TAF3; conditions: GST-tagged TAF3; sheet Array Heatmap; each array performed twice, total n = 4
Method in brief: as §1

[31] = test system: TRIM66 (PB); conditions: GST-tagged TRIM66 (PB = PHD + Bromodomain); sheet Array Heatmap; each array performed twice, total n = 4
Method in brief: as §1

H3K4ac + K14ac: H3 1-20
Array Heatmap signal (histone peptide microarray) [1]: 0.4945
Array Heatmap signal (histone peptide microarray) [2]: 0.8376
Array Heatmap signal (histone peptide microarray) [3]: 0.4507
Array Heatmap signal (histone peptide microarray) [4]: 0.5746
Array Heatmap signal (histone peptide microarray) [5]: 0.8648
Array Heatmap signal (histone peptide microarray) [6]: 0.5648
Array Heatmap signal (histone peptide microarray) [7]: 0.6468
Array Heatmap signal (histone peptide microarray) [8]: 0.6791
Array Heatmap signal (histone peptide microarray) [9]: 0.5034
Array Heatmap signal (histone peptide microarray) [10]: 0.6101
Array Heatmap signal (histone peptide microarray) [11]: 0.5142
Array Heatmap signal (histone peptide microarray) [12]: 0.4509
Array Heatmap signal (histone peptide microarray) [13]: 0.3447
Array Heatmap signal (histone peptide microarray) [14]: 0.505
Array Heatmap signal (histone peptide microarray) [15]: 0.4998
Array Heatmap signal (histone peptide microarray) [16]: 0.4971
Array Heatmap signal (histone peptide microarray) [17]: 0.6896
Array Heatmap signal (histone peptide microarray) [18]: 0.5625
Array Heatmap signal (histone peptide microarray) [19]: 0.4116
Array Heatmap signal (histone peptide microarray) [20]: 0.5464
Array Heatmap signal (histone peptide microarray) [21]: 0.433
Array Heatmap signal (histone peptide microarray) [22]: 0.6284
Array Heatmap signal (histone peptide microarray) [23]: 0.4619
Array Heatmap signal (histone peptide microarray) [24]: 0.5688
Array Heatmap signal (histone peptide microarray) [25]: 0.5218
Array Heatmap signal (histone peptide microarray) [26]: 0.3555
Array Heatmap signal (histone peptide microarray) [27]: 0.5779
Array Heatmap signal (histone peptide microarray) [28]: 0.2771
Array Heatmap signal (histone peptide microarray) [29]: 0.3353
Array Heatmap signal (histone peptide microarray) [30]: 0.2918
Array Heatmap signal (histone peptide microarray) [31]: 0.6492

H3K4ac + K18ac: H3 1-20
Array Heatmap signal (histone peptide microarray) [1]: 0.4624
Array Heatmap signal (histone peptide microarray) [2]: 0.4765
Array Heatmap signal (histone peptide microarray) [3]: 0.3724
Array Heatmap signal (histone peptide microarray) [4]: 0.5623
Array Heatmap signal (histone peptide microarray) [5]: 0.8291
Array Heatmap signal (histone peptide microarray) [6]: 0.5589
Array Heatmap signal (histone peptide microarray) [7]: 0.6662
Array Heatmap signal (histone peptide microarray) [8]: 0.6503
Array Heatmap signal (histone peptide microarray) [9]: 0.5001
Array Heatmap signal (histone peptide microarray) [10]: 0.6077
Array Heatmap signal (histone peptide microarray) [11]: 0.5109
Array Heatmap signal (histone peptide microarray) [12]: 0.455
Array Heatmap signal (histone peptide microarray) [13]: 0.347
Array Heatmap signal (histone peptide microarray) [14]: 0.5036
Array Heatmap signal (histone peptide microarray) [15]: 0.4894
Array Heatmap signal (histone peptide microarray) [16]: 0.4876
Array Heatmap signal (histone peptide microarray) [17]: 0.6733
Array Heatmap signal (histone peptide microarray) [18]: 0.551
Array Heatmap signal (histone peptide microarray) [19]: 0.4179
Array Heatmap signal (histone peptide microarray) [20]: 0.5346
Array Heatmap signal (histone peptide microarray) [21]: 0.4359
Array Heatmap signal (histone peptide microarray) [22]: 0.6219
Array Heatmap signal (histone peptide microarray) [23]: 0.4736
Array Heatmap signal (histone peptide microarray) [24]: 0.5594
Array Heatmap signal (histone peptide microarray) [25]: 0.5195
Array Heatmap signal (histone peptide microarray) [26]: 0.356
Array Heatmap signal (histone peptide microarray) [27]: 0.5224
Array Heatmap signal (histone peptide microarray) [28]: 0.291
Array Heatmap signal (histone peptide microarray) [29]: 0.3275
Array Heatmap signal (histone peptide microarray) [30]: 0.2831
Array Heatmap signal (histone peptide microarray) [31]: 0.6289

H3K4ac: H3 1-20 [Peptide H3K4ac]
Array Heatmap signal (histone peptide microarray) [1]: 0.3833
Array Heatmap signal (histone peptide microarray) [2]: 0.4282
Array Heatmap signal (histone peptide microarray) [3]: 0.3314
Array Heatmap signal (histone peptide microarray) [4]: 0.511
Array Heatmap signal (histone peptide microarray) [5]: 0.7194
Array Heatmap signal (histone peptide microarray) [6]: 0.5057
Array Heatmap signal (histone peptide microarray) [7]: 0.6919
Array Heatmap signal (histone peptide microarray) [8]: 0.663
Array Heatmap signal (histone peptide microarray) [9]: 0.5138
Array Heatmap signal (histone peptide microarray) [10]: 0.6074
Array Heatmap signal (histone peptide microarray) [11]: 0.4516
Array Heatmap signal (histone peptide microarray) [12]: 0.4245
Array Heatmap signal (histone peptide microarray) [13]: 0.3289
Array Heatmap signal (histone peptide microarray) [14]: 0.4265
Array Heatmap signal (histone peptide microarray) [15]: 0.429
Array Heatmap signal (histone peptide microarray) [16]: 0.4174
Array Heatmap signal (histone peptide microarray) [17]: 0.5705
Array Heatmap signal (histone peptide microarray) [18]: 0.4727
Array Heatmap signal (histone peptide microarray) [19]: 0.3036
Array Heatmap signal (histone peptide microarray) [20]: 0.5593
Array Heatmap signal (histone peptide microarray) [21]: 0.3459
Array Heatmap signal (histone peptide microarray) [22]: 0.5951
Array Heatmap signal (histone peptide microarray) [23]: 0.424
Array Heatmap signal (histone peptide microarray) [24]: 0.5477
Array Heatmap signal (histone peptide microarray) [25]: 0.603
Array Heatmap signal (histone peptide microarray) [26]: 0.3449
Array Heatmap signal (histone peptide microarray) [27]: 0.4419
Array Heatmap signal (histone peptide microarray) [28]: 0.2316
Array Heatmap signal (histone peptide microarray) [29]: 0.3065
Array Heatmap signal (histone peptide microarray) [30]: 0.248
Array Heatmap signal (histone peptide microarray) [31]: 0.5857

From paper PMC6979384, “Characterization of the plant homeodomain (PHD) reader family for their histone tail interactions” (Epigenetics & Chromatin, 2020)
